Active and inactive are the calls of the source. The calls are words filed in the database; no cut-off is given here.
Experiments:
[1] = Inhibition of JAK-mediated IL4-induced Stat5 phosphorylation in BALB/c mouse CD11b-int macrophages by Phospho-Flow cytometry
[2] = biological target: T1, Janus Kinase (JAK) (Homo sapiens) (UniProt P52333+P23458+O60674+P29597); assay: Inhibition of JAK-mediated GM-CSF-induced Stat5 phosphorylation in human U937 cells by Phospho-Flow cytometry at 20 uM; format: cell-based; conditions: U-937
[3] = biological target: T1, Janus Kinase (JAK) (Homo sapiens); assay: Inhibition of JAK-mediated interferon-gamma-induced Stat1 phosphorylation in human U937 cells by Phospho-Flow cytometry at 20 uM; format: cell-based; conditions: U-937
[4] = biological target: MAP kinase p38 (Homo sapiens, UniProt O15264+Q15759+Q16539+P53778); assay: Inhibition of anisomycin-induced p38 phosphorylation in human U937 cells by Phospho-Flow cytometry at 20 uM; format: cell-based; conditions: U-937
[5] = Inhibition of JAK-mediated IL6-induced Stat1 phosphorylation in BALB/c mouse B cells by Phospho-Flow cytometry; format: cell-based
[6] = Inhibition of JAK-mediated IL10-induced Stat3 phosphorylation in BALB/c mouse B cells by Phospho-Flow cytometry; format: cell-based
[7] = Inhibition of JAK-mediated interferon-gamma-induced Stat1 phosphorylation in BALB/c mouse B cells by Phospho-Flow cytometry; format: cell-based
[8] = Inhibition of JAK-mediated IL6-induced Stat3 phosphorylation in BALB/c mouse B cells by Phospho-Flow cytometry; format: cell-based
[9] = Inhibition of JAK-mediated IL15-induced Stat5 phosphorylation in BALB/c mouse B cells by Phospho-Flow cytometry; format: cell-based
[10] = Inhibition of JAK-mediated IL7-induced Stat5 phosphorylation in BALB/c mouse B cells by Phospho-Flow cytometry; format: cell-based
[11] = Inhibition of JAK-mediated IL4-induced Stat5 phosphorylation in BALB/c mouse B cells by Phospho-Flow cytometry; format: cell-based
[12] = Inhibition of JAK-mediated IL6-induced Stat1 phosphorylation in BALB/c mouse CD4+ T cells by Phospho-Flow cytometry; format: cell-based; conditions: T-cell
[13] = Inhibition of JAK-mediated IL10-induced Stat3 phosphorylation in BALB/c mouse CD4+ T cells by Phospho-Flow cytometry; format: cell-based; conditions: T-cell
[14] = Inhibition of JAK-mediated interferon-gamma-induced Stat1 phosphorylation in BALB/c mouse CD4+ T cells by Phospho-Flow cytometry; format: cell-based; conditions: T-cell
[15] = Inhibition of JAK-mediated IL6-induced Stat3 phosphorylation in BALB/c mouse CD4+ T cells by Phospho-Flow cytometry; format: cell-based; conditions: T-cell
[16] = Inhibition of JAK-mediated IL15-induced Stat5 phosphorylation in BALB/c mouse CD4+ T cells by Phospho-Flow cytometry; format: cell-based; conditions: T-cell
[17] = Inhibition of JAK-mediated IL7-induced Stat5 phosphorylation in BALB/c mouse CD4+ T cells by Phospho-Flow cytometry; format: cell-based; conditions: T-cell
[18] = Inhibition of JAK-mediated IL4-induced Stat6 phosphorylation in BALB/c mouse CD4+ T cells by Phospho-Flow cytometry; format: cell-based; conditions: T-cell
[19] = Inhibition of JAK-mediated IL4-induced Stat5 phosphorylation in BALB/c mouse CD4+ T cells by Phospho-Flow cytometry; format: cell-based; conditions: T-cell
[20] = Inhibition of JAK-mediated IL6-induced Stat1 phosphorylation in BALB/c mouse CD8+ T cells by Phospho-Flow cytometry; format: cell-based; conditions: T-cell
[21] = Inhibition of JAK-mediated IL10-induced Stat3 phosphorylation in BALB/c mouse CD8+ T cells by Phospho-Flow cytometry; format: cell-based; conditions: T-cell
[22] = Inhibition of JAK-mediated IL6-induced Stat3 phosphorylation in BALB/c mouse CD8+ T cells by Phospho-Flow cytometry; format: cell-based; conditions: T-cell
[23] = Inhibition of JAK-mediated IL15-induced Stat5 phosphorylation in BALB/c mouse CD8+ T cells by Phospho-Flow cytometry; format: cell-based; conditions: T-cell
[24] = Inhibition of JAK-mediated IL7-induced Stat5 phosphorylation in BALB/c mouse CD8+ T cells by Phospho-Flow cytometry; format: cell-based; conditions: T-cell
[25] = Inhibition of JAK-mediated IL4-induced Stat6 phosphorylation in BALB/c mouse CD8+ T cells by Phospho-Flow cytometry; format: cell-based; conditions: T-cell
[26] = Inhibition of JAK-mediated IL4-induced Stat5 phosphorylation in BALB/c mouse CD8+ T cells by Phospho-Flow cytometry; format: cell-based; conditions: T-cell
[27] = Inhibition of JAK-mediated IL6-induced Stat1 phosphorylation in BALB/c mouse CD11b-hi neutrophils by Phospho-Flow cytometry
[28] = Inhibition of JAK-mediated IL10-induced Stat3 phosphorylation in BALB/c mouse CD11b-hi neutrophils by Phospho-Flow cytometry
[29] = Inhibition of JAK-mediated interferon-gamma-induced Stat1 phosphorylation in BALB/c mouse CD11b-hi neutrophils by Phospho-Flow cytometry
[30] = Inhibition of JAK-mediated IL6-induced Stat3 phosphorylation in BALB/c mouse CD11b-hi neutrophils by Phospho-Flow cytometry
[31] = Inhibition of JAK-mediated IL15-induced Stat5 phosphorylation in BALB/c mouse CD11b-hi neutrophils by Phospho-Flow cytometry
[32] = Inhibition of JAK-mediated IL7-induced Stat5 phosphorylation in BALB/c mouse CD11b-hi neutrophils by Phospho-Flow cytometry
[33] = Inhibition of JAK-mediated IL4-induced Stat5 phosphorylation in BALB/c mouse CD11b-hi neutrophils by Phospho-Flow cytometry
[34] = Inhibition of JAK-mediated IL6-induced Stat1 phosphorylation in BALB/c mouse CD11b-int macrophages by Phospho-Flow cytometry
[35] = Inhibition of JAK-mediated IL10-induced Stat3 phosphorylation in BALB/c mouse CD11b-int macrophages by Phospho-Flow cytometry
[36] = Inhibition of JAK-mediated interferon-gamma-induced Stat1 phosphorylation in BALB/c mouse CD11b-int macrophages by Phospho-Flow cytometry
[37] = Inhibition of JAK-mediated IL6-induced Stat3 phosphorylation in BALB/c mouse CD11b-int macrophages by Phospho-Flow cytometry
[38] = Inhibition of JAK-mediated IL15-induced Stat5 phosphorylation in BALB/c mouse CD11b-int macrophages by Phospho-Flow cytometry
[39] = Inhibition of JAK-mediated IL7-induced Stat5 phosphorylation in BALB/c mouse CD11b-int macrophages by Phospho-Flow cytometry
[40] = Inhibition of JAK-mediated IL4-induced Stat6 phosphorylation in BALB/c mouse CD11b-int macrophages by Phospho-Flow cytometry
[41] = test system: B; assay: Inhibition of JAK-mediated interferon-gamma-induced Stat1 phosphorylation in BALB/c mouse B cells at 3.5 uM by Phospho-Flow cytometry; format: cell-based
[42] = test system: T-cell; assay: Inhibition of JAK-mediated interferon-gamma-induced Stat1 phosphorylation in BALB/c mouse CD4+ T cells at 100 uM by Phospho-Flow cytometry; format: cell-based
[43] = test system: Mus musculus; assay: In vivo inhibition of JAK-mediated IL4-induced Stat6 phosphorylation in blood cells in BALB/c mouse at 1 to 10 mg/kg, iv administered 30 mins before IL challenge for 15 mins; format: functional, organism-based
[44] = test system: Mus musculus; assay: In vivo inhibition of JAK-mediated IL6-induced Stat3 phosphorylation in blood cells in BALB/c mouse at 1 to 10 mg/kg, iv administered 30 mins before IL challenge for 15 mins; format: functional, organism-based
[45] = test system: Mus musculus; assay: In vivo inhibition of JAK-mediated IL4-induced Stat6 phosphorylation in spleen cells in BALB/c mouse at 1 to 10 mg/kg, iv administered 30 mins before IL challenge for 15 mins; format: functional, organism-based
[46] = test system: Mus musculus; assay: In vivo inhibition of JAK-mediated IL6-induced Stat3 phosphorylation in spleen cells in BALB/c mouse at 1 to 10 mg/kg, iv administered 30 mins before IL challenge for 15 mins; format: functional, organism-based

Compound `COC1=C(N)C(=O)c2nc(-c3nc(C(=O)O)c(C)c(-c4ccc(OC)c(OC)c4O)c3N)ccc2C1=O` [STREPTONIGRIN] has an IC50 [1] of under 20 µM, an inhibition [2] of 25% and an inhibition [3] of over 65%. The inhibition [4] was 25%, the IC50 [5] was under 20 µM and the IC50 [6] was under 20 µM. It also gave an IC50 [7] of under 20 µM, an IC50 [8] of under 20 µM and an IC50 [9] of under 20 µM. The IC50 [10] was under 20 µM, the IC50 [11] was under 20 µM and the IC50 [12] was under 20 µM. The IC50 [13] was under 20 µM, the IC50 [14] was under 20 µM and the IC50 [15] was under 20 µM. The IC50 [16] was under 20 µM, the IC50 [17] was under 20 µM and the IC50 [18] was under 20 µM. It also gave an IC50 [19] of under 20 µM, an IC50 [20] of under 20 µM and an IC50 [21] of under 20 µM. It also gave an IC50 [22] of under 20 µM, an IC50 [23] of under 20 µM and an IC50 [24] of under 20 µM. For the same compound, the IC50 [25] was under 20 µM, the IC50 [26] was under 20 µM and the IC50 [27] was under 20 µM. For the same compound, the IC50 [28] was under 20 µM, the IC50 [29] was under 20 µM and the IC50 [30] was under 20 µM. It also gave an IC50 [31] of under 20 µM, an IC50 [32] of under 20 µM and an IC50 [33] of under 20 µM. The IC50 [34] was under 20 µM, the IC50 [35] was under 20 µM and the IC50 [36] was under 20 µM. It also gave an IC50 [37] of under 20 µM, an IC50 [38] of under 20 µM and an IC50 [39] of under 20 µM. For the same compound, the IC50 [40] was under 20 µM, the inhibition [41] was “Active” and the inhibition [42] was under 50%. The inhibition [43] was “Active”, the inhibition [44] was “Active” and the inhibition [45] was “Active”. For the same compound, the inhibition [46] was “Active”.

From ChEMBL document CHEMBL1212697, “High-content single-cell drug screening with phosphospecific flow cytometry” (Nat Chem Biol, 2008)
